Results from US20220142995A1, “DUAL ATM AND DNA-PK INHIBITORS FOR USE IN ANTI-TUMOR THERAPY” (XRAD Therapeutics, Inc., priority 2019, published 2022).

How the values were obtained:
ATM and DNA-PK kinases = assay: Immunoblot of radiation-induced phosphorylation of ATM, DNA-PKcs and KAP1 in MCF7 cells; format: cell-based, human; settings: MCF7 cells, 20, 100, 500, 1000 nM, 30 min pre-treatment, 10 Gy, harvested 1 h later
Description: (§1) Cell Culture. The MCF-7 human breast carcinoma cell line and HCT116 p53 wild-type and HCT116 p53−/− cell lines were obtained from ATCC. […]
(§2) Immunoblotting. […] One hour after IR, cells were lysed in RIPA buffer ([…], pH 8.0, 150 mM NaCl, 0.1% SDS, 0.5% sodium deoxycholate, 1% IGEPAL® CA-630 (Sigma, 18896) for 20 min at 4° C. in the presence of protease and phosphatase inhibitor cocktails (Roche, #04693159001 & #04906837001). Cell lysates were centrifuged at 13,200 g for 10 min at 4° C. and supernatants were analyzed for protein content using BCA assay (Pierce™ BCA Protein Assay Kit, cat #23227, ThermoFisher Waltham, Mass. 02451) and equal amounts of protein/lane were used for subsequent immunoblot analyses. Proteins were denatured by adding NuPAGE LSD Sample Buffer [4×] […]

TBK1 = assay: Immunoblot of TBK1 phosphorylation in HCT116 cells (p53 wild-type or p53-/-); format: cell-based
Description: as §1, §2

Q: What does the source list for `CC(C)NCCOc1ncc(-c2cc3c4c(cnc3cc2F)N(C)C(=O)C42CCC2)cc1NS(C)(=O)=O` [Compound 569, N-(5-(7′-Fluoro-3′-methyl-2′-oxo-2′,3′-dihydrospiro[cyclobutane-1,1′-pyrrolo[2,3-c]quinolin]-8′-yl)-2-(2-(isopropylamino)ethoxy)pyridin-3-yl)methanesulfonamide]?
A: inhibition of radiation-induced phosphorylation of DNA-PKcs Ser2056, ATM Ser1981 and KAP1 ser824 (ATM and DNA-PK kinases): potent dose-dependent inhibition; induction of phosphorylation (activation) of TBK1 (TBK1; HCT116 p53 wild-type or p53-/- cells, 569 1 μM, ATMi + DNA-PKi 0.5 or 1 micromolar each, 0 or 10 Gy): more potent activator of TBK1 phosphorylation than either of the single target kinase inhibitors; dependence of TBK1 activation on p53 status (TBK1; HCT116 p53 wild-type vs p53-negative cells, 1 μM): independent of p53 status
